Results as given in PubChem BioAssay AID2060604 (Molecular Pharmacology Branch, DTP, NCI, 2025).
“And” between values parts separate entries of the source, which are not always exact repeats. Identical values can stand only once.

System: 379773-124-R-J2-PDC complex spheroids, viability % test/control
Assay: Anticancer human tumor 379773-124-R-J2-PDC patient-derived endometrial carcinoma cell line growth inhibition [CLK]
Settings: for viability, T/C: stronger effect = lower value
Source text: A high-throughput screen of multi-cell type tumor spheroids was designed to identify active combinations of […] and targeted small molecules. Complex spheroids include a stromal component modeled by human endothelial cells (HUVEC) and fibroblasts modeled by human mesenchymal stem cells (MSCs). The concentration ranges selected for each drug and investigational agent were based upon clinically achievable concentrations if the clinical Cmax of the agent was known.
Compounds. The drugs and investigational agents: cirtuvivint (SM08502; NSC835563), CC-671 (NSC850746), vemurafenib (NSC761431), tapotoclax (NSC804041), sotorasib (NSC818433), adagrasib (NSC831453), MRTX-1133 (NSC836407), BAY2416964 (NSC825713), copanlisib (NSC816437), inavolisib (NSC800729), abemaciclib (NSC768073), osimertinib (NSC779217), entinostat (NSC756642), eltanexor (KPT-8602, NSC794443), venetoclax (NSC766270), ceralasertib (NSC777638), bortezomib (NSC756655), olaparib (NSC753686), talazoparib (NSC767125), alisertib (NSC759677), peposertib (NSC802822), gemcitabine (NSC613327), 5-fluorouracil (NSC19893), SN-38 (NSC673596), oxaliplatin (NSC266046), paclitaxel (NSC125973), and doxorubicin (NSC123127), were obtained from the National Cancer Institute (NCI) Developmental Therapeutics Program Chemical Repository. The FDA-approved anticancer drug set is available from the Developmental Therapeutics Program at https://dtp.cancer.gov/organization/dscb/obtaining/available plates.htm. […] The stock solutions were prepared in dimethyl sulfoxide (DMSO, Sigma-Aldrich, St. Louis, MO, cat. D2650), except for the platinum complexes which were prepared in saline (Quality Biological, Gaithersburg, MD, cat. 114-055-101), at 800-fold the tested concentration and stored at -70 degrees C prior to their use. All drugs and investigational agents were tested over a range starting from a high concentration at or near the clinical Cmax and decreasing in half-log increments. If the clinical Cmax for an agent had not been determined, the highest concentration tested was 10 microM.
Cell Culture. All cells were maintained in an incubator at 37 degrees C and 5% CO2 with 95% humidity. The PDC lines were cultured according to standard operating procedures established by the NCI PDMR. Briefly, all PDCs were thawed and cultured in Matrigel-coated flasks prepared with a working solution of 1X Ham's F-12 nutrient mix, without supplementation (Invitrogen, Waltham, MA, cat. 11765054), 100 U/mL penicillin-streptomycin (Invitrogen, cat. 15140122), and 2.5% Matrigel (Corning Inc., Corning, NY, cat. 354248) for the first three passages. The 947758-054-R-J2-PDC line was cultured in 6B/Colon 1A media, which includes advanced DMEM/F-12 (Thermo Fisher Scientific, cat. 12634028), 10 mM HEPES (Thermo Fisher Scientific, cat. 15630080), 1X GlutaMAX supplement (Thermo Fisher Scientific, cat. 35050061), 0.1 mg/mL primocin (InvivoGen, cat. ant-pm-2), 10% defined fetal bovine serum, heat inactivated (HyClone Laboratories Inc., cat. SH30070.03HI), 1.25 mM N-Acetyl-L-cysteine (Sigma-Aldrich, cat. A9165), 10 mM nicotinamide (Sigma-Aldrich, cat. N0636), 1X B-27 supplement (Thermo Fisher Scientific, cat. 17504044), 1X N-2 supplement (Thermo Fisher Scientific, cat. 17502048), and 10 microM Y-27632 dihydrochloride (Tocris Bioscience, cat. 1254). The 876862-298-R-J1-PDC was cultured in 6E media, which includes all 6B/Colon 1A media components plus 50% L-WRN conditioned media (ATCC, cat. CRL-3276), 50 ng/mL recombinant human EGF recombinant protein (hEGF; Thermo Fisher Scientific, cat. PHG0311), 10 ng/mL recombinant human fibroblast growth factor 10 (hGFG-10; PeproTech, cat. 100-26), 1 ng/mL recombinant human fibroblast growth factor 2 (hFGF-2; PeproTech, cat. 100-18B), and 1 µM prostaglandin E2 (PGE2; Tocris, cat. 2296). The 227483-062-R1-J1-PDC line was cultured in Panc media, containing all 6E components except hFGF-2, with the addition of 500 nM SB-431542 (Selleckchem, cat. S1067) and 10 nM gastrin (Tocris, cat. 3006). […]
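Note: compound exposure lasted seven days before the viability readout.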
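Throughout, for viability, T/C: 100% = DMSO vehicle control wells.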

Row | IC50 (curve of compound) | SMILES | viability, T/C (compound 0.0316 µM) | viability, T/C (compound 0.1 µM) | viability, T/C (compound 0.316 µM) | viability, T/C (compound 1 µM) | viability, T/C (compound 3.16 µM) | viability, T/C (compound 10 µM) | further results
1 | > 10 µM | C=CC(=O)N1CCN(c2nc(=O)n(-c3c(C)ccnc3C(C)C)c3nc(-c4c(O)cccc4F)c(F)cc23)C(C)C1 (stereo not drawn) | 93.1% and 85.7% | 82.4% and 92.2% | 88.2% and 84.4% | 107% and 91.6% | 95.7% and 98.6% | 92.6% and 94.5% | 
2 | > 0.3 µM | C=CC(=O)Nc1cc(Nc2nccc(-c3cn(C)c4ccccc34)n2)c(OC)cc1N(C)CCN(C)C |  |  |  |  |  |  | viability, T/C (compound 0.000949 µM): 101% and 85.7%; viability, T/C (compound 0.003 µM): 87.9% and 87.5%; viability, T/C (compound 0.00949 µM): 91.7% and 74.8%; viability, T/C (compound 0.03 µM): 94.4% and 105%; viability, T/C (compound 0.0949 µM): 96.5% and 100%; viability, T/C (compound 0.3 µM): 98.5% and 90.8%
3 | > 10 µM | CC(CO)NC(=O)c1cc(-c2ccc(Cl)cc2)nn(-c2cnn(C)c2)c1=O (stereo not drawn) | 98.9% and 90.2% | 83.6% and 92.8% | 84.6% and 97.6% | 68% and 85.8% | 88.3% and 95.1% | 72.3% and 68.5% | 
4 | 4.88 µM and 4.99 µM | CC1(C)CCC(CN2CCN(c3ccc(C(=O)NS(=O)(=O)c4ccc(NCC5CCOCC5)c([N+](=O)[O-])c4)c(Oc4cnc5[nH]ccc5c4)c3)CC2)=C(c2ccc(Cl)cc2)C1 | 89.8% and 83.7% | 92.6% and 89.4% | 96.8% and 94% | 96.9% and 111% | 77.8% and 79.7% | 3.91% and 4.86% | 
5 | > 10 µM | CCCS(=O)(=O)Nc1ccc(F)c(C(=O)c2c[nH]c3ncc(-c4ccc(Cl)cc4)cc23)c1F | 83.1% and 93.8% | 88.5% and 84.4% | 85.2% and 98.8% | 100% and 90.3% | 81.5% and 78.6% | 64.6% and 53.6% | 
6 | > 1 µM | CCN1CCN(Cc2ccc(Nc3ncc(F)c(-c4cc(F)c5nc(C)n(C(C)C)c5c4)n3)nc2)CC1 | 83.8% and 93.2% | 110% and 88.4% | 89.1% and 101% | 81% and 78% |  |  | viability, T/C (compound 0.00316 µM): 87% and 87.5%; viability, T/C (compound 0.01 µM): 81.6% and 73%
7 | 0.0676 µM and 0.0305 µM | Cn1ncnc1[C@H]1c2n[nH]c(=O)c3cc(F)cc(c23)N[C@@H]1c1ccc(F)cc1 | 72.3% and 49% | 38.9% and 26.1% |  |  |  |  | viability, T/C (compound 0.000316 µM): 97.3% and 82.2%; viability, T/C (compound 0.001 µM): 100% and 79.8%; viability, T/C (compound 0.00316 µM): 86.3% and 79.5%; viability, T/C (compound 0.01 µM): 86.8% and 79.1%
8 | 3.02 µM and 2.86 µM | Nc1ccccc1NC(=O)c1ccc(CNC(=O)OCc2cccnc2)cc1 | 108% and 92.4% | 100% and 89.7% | 95.6% and 104% | 102% and 96.7% | 47.8% and 45.6% | 8.85% and 7.74% | 
9 | > 10 µM | O=C(c1cc(Cc2n[nH]c(=O)c3ccccc23)ccc1F)N1CCN(C(=O)C2CC2)CC1 | 83.1% and 108% | 89% and 86.6% | 89.2% and 84.2% | 89.5% and 80.5% | 81.5% and 78.6% | 56.1% and 47% | 

The next lines start with the molecule.

Row | SMILES | IC50 (curve of compound) | viability, T/C (compound 0.0316 µM) | viability, T/C (compound 0.1 µM) | viability, T/C (compound 0.316 µM) | viability, T/C (compound 1 µM) | viability, T/C (compound 3.16 µM) | viability, T/C (compound 10 µM) | further results
10 | C#Cc1c(F)ccc2cc(O)cc(-c3ncc4c(N5CC6CCC(C5)N6)nc(OCC56CCCN5CC(F)C6)nc4c3F)c12 (stereo not drawn) | > 10 µM | 90.6% and 93% | 79.4% and 89.5% | 88.3% and 86.8% | 92% and 85.9% | 87% and 103% | 80% and 87.1% | 
11 | C=C(F)C(=O)N1CCN(c2nc(OCC3CCCN3C)nc3c2CCN(c2cccc4cccc(Cl)c24)C3)CC1CC#N (stereo not drawn) | 2.24 µM and 4.26 µM | 76.2% and 106% | 93.9% and 84.4% | 95% and 80.9% | 92% and 98.5% | 33.3% and 66.9% | 0.2% and 1.39% | 
12 | CC(C)CC(NC(=O)C(Cc1ccccc1)NC(=O)c1cnccn1)B(O)O (stereo not drawn) | 0.00185 µM and 0.00153 µM |  |  |  |  |  |  | viability, T/C (compound 0.000949 µM): 83.2% and 77.4%; viability, T/C (compound 0.003 µM): 25.8% and 11.7%; viability, T/C (compound 0.00949 µM): 0.16% and 0.15%; viability, T/C (compound 0.03 µM): 0.22% and 0.21%; viability, T/C (compound 0.0949 µM): 0.19% and 0.16%; viability, T/C (compound 0.3 µM): 0.09% and 0.12%
13 | CC(Nc1ccc2c(c1)OCCn1cc(N3C(=O)OCC3C(F)F)nc1-2)C(N)=O (stereo not drawn) | > 10 µM | 84.9% and 92.7% | 93.1% and 85.8% | 93.5% and 79.4% | 79% and 87.4% | 77.1% and 78.5% | 69.1% and 67.6% | 
14 | CC1COCCN1c1cc(C2(S(C)(=N)=O)CC2)nc(-c2ccnc3[nH]ccc23)n1 (stereo not drawn) | 2.7 µM and 2.87 µM | 90.7% and 97.2% | 80.4% and 89.4% | 70.8% and 87.9% | 88.6% and 74.2% | 44.8% and 47.4% | 11.5% and 10.6% | 
15 | CCc1c2c(nc3ccc(O)cc13)-c1cc3c(c(=O)n1C2)COC(=O)[C@]3(O)CC | < 0.00316 µM | 5.03% and 4.19% | 2.77% and 1.93% | 0.94% and 0.86% | 0.57% and 0.46% |  |  | viability, T/C (compound 0.00316 µM): 24.2% and 20.4%; viability, T/C (compound 0.01 µM): 8.01% and 6.62%
16 | CN1CCN(c2cc(C(=O)Nc3cc4cc(-c5cnn(C)c5)ccc4cn3)ccn2)CC1 |  | 95.6% [middle of 12 runs] |  | 28.3% [middle of 12 runs] | 0.33% [middle of 10 runs] | 0.29% [middle of 9 runs] | 0.22% [middle of 9 runs] | IC50 (compound alone, run of 09/18/2023): 199 nM [middle of 12 runs]
17 | CNC(=O)c1ccc(Nc2nc(OC3CCCC3)c3c(-c4ccc5nc(C)oc5c4)c[nH]c3n2)c(OC)c1 |  | 82.9% [middle of 12 runs] | 39.7% [middle of 12 runs] | 39% [middle of 12 runs] | 32.1% [middle of 12 runs] | 35.5% [middle of 12 runs] | 33.9% [middle of 12 runs] | IC50 (compound alone, run of 09/19/2023): 75.8 nM [middle of 12 runs]
18 | COC1C=CCC(C)C(C)S(=O)(=O)NC(=O)c2ccc3c(c2)N(CC2CCC21)CC1(CCCc2cc(Cl)ccc21)CO3 (stereo not drawn) | 5.21 µM | 96.5% and 98.1% | 91.1% and 82% | 98.4% and 83.7% | 98.3% and 78.7% | 84.1% and 88.6% | 5.48% and 2.76% | 
19 | COc1c(OCCCN2CCOCC2)ccc2c3n(c(=NC(=O)c4cnc(N)nc4)nc12)CCN3 | 0.0787 µM and 0.0588 µM | 73.5% and 69.3% | 43.4% and 40.3% | 15.3% and 12.2% | 4.52% and 3.3% |  |  | viability, T/C (compound 0.00316 µM): 85.3% and 98.5%; viability, T/C (compound 0.01 µM): 91.9% and 72.6%
20 | NC(=O)C(=Cn1cnc(-c2cc(C(F)(F)F)cc(C(F)(F)F)c2)n1)c1cncnc1 | 0.0726 µM and 0.0459 µM |  |  |  |  |  |  | viability, T/C (compound 0.00949 µM): 83.8% and 85.3%; viability, T/C (compound 0.03 µM): 74.8% and 59.7%; viability, T/C (compound 0.0949 µM): 41.1% and 33.7%; viability, T/C (compound 0.3 µM): 19.5% and 14.4%; viability, T/C (compound 0.949 µM): 13.9% and 7.66%; viability, T/C (compound 3 µM): 4.42% and 2.99%
21 | Nc1ccn(C2OC(CO)C(O)C2(F)F)c(=O)n1 (stereo not drawn) | < 0.0316 µM | 6.4% and 4.58% | 5.3% and 4.24% | 6.69% and 3.96% | 5.77% and 4.69% | 4.84% and 3.97% | 3.93% and 3.21% | 
22 | O=c1[nH]cc(F)c(=O)[nH]1 | > 10 µM | 90.7% and 97.5% | 107% and 93.2% | 91.5% and 98.6% | 97.5% and 100% | 70.2% and 81.4% | 50.9% and 73.7% | 
